Source: PubChem BioAssay (NCI)
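Briefly, cells in 96-well plates were exposed to five compound concentrations for 48 h, and endpoints were estimated by linear interpolation. TGI marks complete inhibition of growth.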

Legend:
Assay in all cases: DTP human tumour cell line panel, 48 h
DMS 114 small cell lung = tested on: DMS 114 small cell lung
XF 498 CNS = tested on: XF 498 CNS
M19-MEL melanoma = tested on: M19-MEL melanoma
LXFL 529 NSCLC = tested on: LXFL 529 NSCLC
SNB-78 CNS = tested on: SNB-78 CNS
DMS 273 small cell lung = tested on: DMS 273 small cell lung
HOP-18 NSCLC = tested on: HOP-18 NSCLC
RXF-631 renal = tested on: RXF-631 renal

Row | Compound | TGI (DMS 114 small cell lung) | TGI (XF 498 CNS) | TGI (M19-MEL melanoma) | TGI (LXFL 529 NSCLC) | TGI (SNB-78 CNS) | TGI (DMS 273 small cell lung) | TGI (HOP-18 NSCLC) | TGI (RXF-631 renal)
1 | CCOC(=O)c1ncn2c1[nH]c(=O)c1ccccc12 | > 100 µM | > 100 µM | > 100 µM | > 100 µM | > 100 µM | > 100 µM |  | 
2 | CC1(Br)S(=O)(=O)OCCOS1(=O)=O | > 100 µM | > 100 µM | > 100 µM | > 100 µM | > 100 µM | > 100 µM |  | 
3 | C=CC(Br)(CBr)CCC(Br)C(C)(C)Br (centres undefined) | 24.6 µM |  | 27.4 µM | 27.7 µM | 19.6 µM | 22.5 µM | 28.9 µM | 
4 | Cc1no[n+]([O-])c1/C=N/NS(=O)(=O)c1ccccc1 | > 100 µM |  | > 100 µM | > 100 µM |  |  | > 100 µM | 
5 | Cc1ccc(S(=O)(=O)C(C#N)c2nc3ccccc3nc2N2CCOCC2)cc1 (centres undefined) | 49.5 µM | 81.7 µM | 81.6 µM | > 100 µM | 15.9 µM | 49.4 µM |  | 
6 | C=C(C)C1Cc2c(cc(OC)c3c(=O)c4ccccc4n(C)c23)O1 (centres undefined) | > 100 µM | > 100 µM | > 100 µM | > 100 µM | > 100 µM | > 100 µM | > 100 µM | 
7 | COc1ccccc1NC(=O)CC(=O)n1nc(-c2ccccc2)c(N=Nc2ccccc2[N+](=O)[O-])c1-c1ccccc1 | > 100 µM | > 100 µM | > 100 µM | > 100 µM | > 100 µM | > 100 µM | > 100 µM | > 100 µM
8 | O=S(=O)(c1ccccc1)n1cnc(CCc2ccccc2)n1 | > 100 µM |  | > 100 µM | > 100 µM | > 100 µM | > 100 µM | > 100 µM | 
